Measured values: patent US5597829A, “Lactone stable formulation of camptothecin and methods for uses thereof” (priority 1994, dated 1997)
“Also recorded” adds a separate entry of the source. Read-outs that look alike come from different tables or passages of the source.

Experiments:
[1] = cited from earlier work
L1210 cells = conditions: cited from earlier work
[2] = test system: Topoisomerase I purified from human colon carcinoma cells or calf thymus; conditions: cited from earlier work
LD1210 leukemia = conditions: 10-100 mg/kg intraperitoneally; cited from earlier work
[3] = human, in vivo; cited from earlier work
[4] = cited from earlier work; remark: listed apart in the source
[5] = Oral absorption / bioavailability; format: in vivo; conditions: with taurocholic acid or salt in solution dosage composition
Text: Taurocholic acid, a bile acid, may enhance in the intestinal absorption of the drug in certain patients. […] It is believed that this is due to the formation of a micellar solution of CPT on dilution thereof with the gastric contents.
Analogous to that of etoposide, it is believed that ingestion of the present dosage form of CPT and resulting dilution thereof by the stomach contents, results in the formation of a micellar solution of CPT in the stomach which is readily absorbed by the gastrointestinal tract.

DNA = conditions: in vitro cells; cited from earlier work
[6] = cited from earlier work; remark: listed apart in the source
[7] = test system: topoisomerase I-cleaved DNA complex; conditions: cited from earlier work
[8] = pH below 7.0; cited from earlier work
[9] = Predicted outcome of administering lactone stable CPT to patients; format: in vivo, human
Text: The novel features of the present invention include the following: (1) pharmaceutically acceptable formulations which allow the direct parenteral administration of lactone stable CPT to human subjects with cancer, (2) pharmaceutically acceptable formulations which allow the direct oral administration of lactone stable CPT to human subjects with cancer, and (3) dosages and schedules for the administration of lactone stable CPT to patients with cancer by parenteral and oral routes of administration. […] The inventors predict that by administering the carboxylate species of CPT a higher incidence of renal toxicity is observed than would be observed if the lactone species of CPT were administered.
Inventors claim that reason previous use of sodium CPT caused hemorrhagic cystitis relates to the enhanced renal excretion of the carboxylate form of CPT which when exposed to the lower pH (~pH 5) of the distal convoluted tubule in the kidney, the carboxylate form of CPT is converted to the lactone form of CPT. […] Elimination of CPT by the renal route is enhanced by administration of the carboxylate form and is reduced by administration of the lactone form.

[10] = carboxylate form; cited from earlier work
malignant melanoma = conditions: cited from earlier work
[11] = cited from earlier work; remark: listed apart in the source
[12] = 24 hours after, once daily ×5, 6.5-20 mg/m^2 /day; cited from earlier work
[13] = 5-day course (27 patients), 4 wks
[14] = 5-day course (27 patients), 8 wks
[15] = 5-day course (27 patients), 12 wks
[16] = 5-day course, 15 mg/m^2 × 5, 9 treated
[17] = 5-day course, 17 mg/m^2 × 5, 5 treated
[18] = 5-day course, 20 mg/m^2 × 5, 10 treated
[19] = single-dose (34 patients), 3 wks
[20] = single-dose (34 patients), 6 wks
[21] = single-dose (34 patients), 9 wks
[22] = single-dose (34 patients), 12 wks
[23] = single-dose, 110 mg/m^2, 2 treated
[24] = single-dose, 120 mg/m^2, 7 treated
[25] = single-dose, 180 mg/m^2, 9 treated

For `CC[C@@]1(O)C(=O)OCc2c1cc1n(c2=O)Cc2cc3cc4c(cc3nc2-1)OCO4` [10,11 methylene dioxycamptothecin], the solubility in water [1] is listed as “relatively insoluble in water”.

In the case of `CC[C@@]1(O)C(=O)OCc2c1cc1n(c2=O)Cc2cc3ccccc3nc2-1` [CPT, camptothecin], the unexplained protein-free breaks (L1210 cells) is listed as “an increase in unexplained protein-free breaks can be detected”, the “inhibition of topoisomerase I” value [2] is listed as “inhibited” and the “T/C (treated/control) ratios” value (LD1210 leukemia) is listed as “superior T/C (treated/control) ratios relative to mice treated in the same manner with 7-ethyl camptothecin (ECPT) and 10-hydroxy 7-ethyl camptothecin (HECPT); also recorded: inferior to that of CPT-11 administration under the same conditions”. For the same molecule, the “toxicity in clinical trials” value [3] was “unpredictable myelosuppression and hemorrhagic cystitis”, the “investigators' conclusion on toxicity and clinical value” ([4]; gastrointestinal cancer) was “a drug of protean and unpredictable toxicity that has no clinical value” and the absorption following ingestion [5] was “improved absorption of the drug following ingestion”. For the same molecule, the “nature of DNA strand breaks” value (DNA) was “Virtually all of the DNA strand breaks observed in vitro cells treated with CPT are protein linked”, the “cystitis as nonhematologic toxic effect” value ([6]; human, in vivo) was “Cystitis was another toxic effect occurring frequently” and the excretion ([6]; human, in vivo) was “excreted unchanged by the kidneys”. The “stabilization of the cleavable complex” value [7] was “only the closed lactone form of the drug helps stabilize the cleavable complex”, the form predominating [8] was “closed form of CPT predominates” and the “renal elimination of CPT” value ([9]; oral or parenteral, lactone form, expected) was “minimal”. For the same molecule, the “frequency of hemorrhagic cystitis relative to sodium CPT” value ([9]; predicted) was “significantly reduced”.

For `CC[C@@](O)(C(=O)O)c1cc2n(c(=O)c1CO)Cc1cc3ccccc3nc1-2` [carboxylate form of CPT], the “reduction of antitumor activity” value [10] is listed as “at least 10 fold”.

For “sodium salt of camptothecin [CPT sodium]”, the “50% or greater decrease in tumor diameter” value (malignant melanoma; 90-360 mg/m^2 every 2 weeks, fifteen patients) is listed as “None”, the myelosuppression (malignant melanoma; fifteen patients) is listed as 11 patients and the toxic effects (malignant melanoma; human, in vivo) is listed as “nausea and vomiting, alopecia, diarrhea, and hemorrhagic cystitis”. For the same molecule, the “less pronounced transient tumor regression” value (malignant melanoma; no clinical benefit, fifteen patients) was “three”, the “toxicity in clinical trials” value [3] was “unpredictable and severe myelosuppression, gastrointestinal toxicity, hemorrhagic cystitis, and alopecia” and the Cystitis ([4]; 5-Day Course, P < 0.05) was 48 % of 27 Patients. For the same molecule, the “Objective results: Improved” value [4, 13] was 1 patients, the “Objective results: Stable” value [4, 13] was 12 patients and the “Objective results: Worse” value [4, 13] was 14 patients. For the same molecule, the “Objective results: Stable” value [4, 14] was 7 patients, the “Objective results: Worse” value [4, 14] was 20 patients and the “Objective results: Stable” value [4, 15] was 6 patients. For the same molecule, the “Objective results: Worse” value [4, 15] was 21 patients, the “Cystitis, No. of Patients” value ([4]; 5-day course, 11 mg/m^2 × 5, 2 treated) was 1 No. of Patients and the “Cystitis, No. of Patients” value [4, 16] was 4 No. of Patients. For the same molecule, the “Diarrhea, No. of Patients” value [4, 16] was 1 No. of Patients, the “Cystitis, No. of Patients” value [4, 17] was 2 No. of Patients and the “Diarrhea, No. of Patients” value [4, 17] was 4 No. of Patients. For the same molecule, the “Cystitis, No. of Patients” value [4, 18] was 6 No. of Patients, the “Diarrhea, No. of Patients” value [4, 18] was 4 No. of Patients and the “Diarrhea, No. of Patients” value ([4]; 5-day course, 22 mg/m^2 × 5, 1 treated) was 1 No. of Patients. The Cystitis ([4]; Single Dose) was 24 % of 34 Patients, the partial objective improvement ([4]; after 2 months (8 or 9 weeks), both large bowel cancer) was “two” and the improvement ([4]; at 3 months, 61 patients) was “none showed improvement”. For the same molecule, the 25%-50% response ([4]; at 3 wks only) was 3 patients, the “persistence of severe diarrhea” value ([4]; higher doses) was no more than 4 weeks and the onset of cystitis ([4]; human, in vivo) was 7 to 10 days. For the same molecule, the “Objective results: Improved” value [4, 19] was 4 patients, the “Objective results: Stable” value [4, 19] was 17 patients and the “Objective results: Worse” value [4, 19] was 13 patients. For the same molecule, the “Objective results: Improved” value [4, 20] was 2 patients, the “Objective results: Stable” value [4, 20] was 11 patients and the “Objective results: Worse” value [4, 20] was 21 patients. The “Objective results: Improved” value [4, 21] was 2 patients, the “Objective results: Stable” value [4, 21] was 8 patients and the “Objective results: Worse” value [4, 21] was 24 patients. The “Objective results: Stable” value [4, 22] was 6 patients, the “Objective results: Worse” value [4, 22] was 28 patients and the “Cystitis, No. of Patients” value ([4]; single-dose, 100 mg/m^2, 6 treated) was 2 No. of Patients. For the same molecule, the “Cystitis, No. of Patients” value [4, 23] was 1 No. of Patients, the “Diarrhea, No. of Patients” value [4, 23] was 1 No. of Patients and the “Cystitis, No. of Patients” value [4, 24] was 2 No. of Patients. The “Diarrhea, No. of Patients” value [4, 24] was 4 No. of Patients, the “Cystitis, No. of Patients” value [4, 25] was 3 No. of Patients and the “Diarrhea, No. of Patients” value [4, 25] was 2 No. of Patients. The “mean urine recovery of CPT” value ([11]; first 48 hours, iv) was 17.4%, the “urine recovery of CPT, range” value ([11]; first 48 hours, iv) was 3.6-38.9% and the “mean urine recovery of CPT excluding the 5 patients with impaired excretion” value ([11]; iv, 2880 min) was 22.8%. The sterile hemorrhagic cystitis ([11]; moderately dehydrated patients) was 3 patients, the “relation of plasma CPT levels to dose” value [12] was “little relation to the dose given” and the “Bladder toxicity, dose limiting” value ([6]; doses of 20 to 30 mg/m^2) was “three”. The “Bladder toxicity, additional patients” value ([6]; doses of 44 and 30 mg/m^2) was “two”, the clinical benefit ([6]; eight patients with measurable disease, 5-day courses) was “No clinical benefit was observed” and the “cystitis as nonhematologic toxic effect” value ([6]; human, in vivo) was “Cystitis was the most prominent nonhematologic toxic effect”. The “major dose-limiting toxic effect” value ([6]; human, in vivo) was “Reversible leukopenia”, the “prolonged leukopenia after daily treatment” value ([6]; total dose of 100 mg/m^2) was “four” and the clinical responses ([6]; weekly courses) was “two”.
